Assay type in all cases: in vivo, mouse
In one data set the test system is Tg.rasH2 mice. Kind of data set: Duplex Sequencing mutant frequency and spectrum in Tg.rasH2 mice dosed with urethane. Particulars: for Mutation Frequency: urethane day 1,3,5, sacrifice day 29, Duplex Sequencing. From the text:
(§1) In this example, the impact of a urethane is examined in different mouse tissue types (lung, spleen, blood) in an FDA-approved cancer-predisposed mouse model: Tg.rasH2 (Saitoh et al. Oncogene 1990. PMID 2202951). This mouse contains ˜3 tandem copies of human Hras with an activating enhancer mutation to boost expression on one hemizygous allele. These mice are predisposed to splenic angiosarcomas and lung adenocarcinomas, and are routinely used for 6 month carcinogenicity studies to substitute for 2 year native animal studies. Tumors found in the mice have usually acquired activating mutations in one copy of the human Hras protooncogene. In this addition to the 4 native mouse genes (Rho, Hp, Ctnnb1, Polr1c), the native mouse Hras and human Hras transgene are also analyzed in this example.
(§2) In this example, Tg.rasH2 mice (n=5/group) were dosed with vehicle or a carcinogenic dose of urethane (day 1,3,5) and sacrificed on day 29 for mutation detection by Duplex Sequencing in target tissues (lung, spleen) and whole blood. The endogenous genes (Rho, Hp, Ctnnb1, Polr1c) and the native mouse and human Hras (trans)genes were also sequenced.
FIG. 8 is a bar graph showing mutant frequency (MF) of lung, spleen and blood samples for control and experimental animals subjected to urethane. In this analysis, every unique variant detected was counted as one mutation, which were summed per sample. This was divided by the total number of Duplex Bases sequenced and across the entire capture region. The number of events is noted above each sample. In total, across all 30 samples, 3,966,947,832 Duplex Sequenced base pairs were generated.
Referring to FIG. 9 and Table 1 together, differences between vehicle control (VC) and treatment groups were highly significant. A Welch's t-test (for unequal variances) was used to determine the significance of the mutagen treated tissue's mutant frequency over that of the control for that tissue. The slightly wider confidence intervals with blood reflects a lower average depth of sequencing in the blood VC samples in this particular example. It is anticipated that this can be corrected using the methods described herein.

The subject of data set [1] is human HRAS transgene codon 61. The experiment in a line: Duplex Sequencing detection of clonal oncogenic mutations in human HRAS transgene of Tg.rasH2 mice. To be noted: day 29.
Text: as §1, §2
FIG. 15A is a graph illustrating SNVs plotted over the genomic intervals for the exons captured from the Ras family of genes, including the human transgenic loci, in the Tg-rasH2 mouse model. Singlets are mutations found in a single molecule. Multiplets are an identical mutation identified within multiple molecules within the same sampler and may represent a clonal expansion event. The height of each point corresponds to the variant allele frequency (VAF) of each SNV, with the with the size of the point corresponds to the for multiplet observations only. The location and relative frequency of Ras family human cancer mutational hotspots in COSMIC are indicated below each gene. FIG. 15B is a graph illustrating single nucleotide variants (SNVs) aligning to exon 3 of the human HRAS transgene. Highlighted is the center residue in codon number 61 in exon 3 of human HRAS, the most common HRAS cancer-driving hotspot.

The subject of data set [2] is BigBlue® transgenic C57BL/6 male mice. The experiment in a line: Duplex Sequencing mutant frequency and spectrum in BigBlue transgenic mice (cII transgene and endogenous genes). As for the experimental part: Tissues were collected and frozen on study day 31. Liver and bone marrow were analyzed for mutants. DNA was isolated and mutants analyzed for cII mutant plaques using RecoverEase and Transpack methods described by Agilent Technologies. Duplex Sequencing was used to sequence cII and other endogenous genes for mutations in liver and bone marrow.
Genes evaluated and criteria used to select genes are as follows: (1) Polr1c (RNA polymerase), which is ubiquitously transcribed in all tissue types; (2) Rho (Rhodopsin), which is not expressed in any tissue besides retina; (3) Hp (Haptoglobin), which is highly expressed in liver, but almost nowhere else; (4) Ctnnb1 (Beta-catenin), which is most commonly mutated gene in human hepatocellular carcinoma; and (5) CII: 360 bp transgenic reporter gene present in ˜80 copies in BigBlue® mice.
FIGS. 3A-3D are box plot graphs showing mutant frequencies calculated for Duplex Sequencing (FIGS. 3A and 3B) and the BigBlue® cII plaque assay (FIGS. 3C and 3D) in liver and bone marrow following mutagen treatment as described above. MF for Duplex Sequencing was based on total mutants per duplex base-pair sequenced (n=5 mice/group). MF for BigBlue® was calculated as number of mutant plaques relative to number of […] (n=6 mice/group).

“Also recorded” adds a separate entry of the source.

For `CCOC(N)=O` [Urethane, urethane], the “Fold Increase of mutation frequency over vehicle control” value in the data set on Tg.rasH2 mice (Blood) came out at 2.2x; in the data set on Tg.rasH2 mice (Lung) it was 7.5x; in the data set on Tg.rasH2 mice (Spleen), 3.3x. Moreover, the “Mutation Frequency” value in the data set with Tg.rasH2 mice (Blood, Tg.rasH2 mice) is reported as 2.39e−07; with Tg.rasH2 mice (Lung, Tg.rasH2 mice) it was 5.04e−07; with Tg.rasH2 mice (Spleen, Tg.rasH2 mice), 2.73e−07. The “Trinucleotide (triplet) mutation spectrum, predominant mutation” value with Tg.rasH2 mice (lung, spleen, blood, Tg.rasH2 mice) was “T:A→A:T within the motif “NTG” is shown as the most common mutation; also recorded: strong propensity for T→A and T→C mutations within the context of “NTG””. For the same compound, the “Variant allele frequencies of HRAS codon 61 mutation” value in data set [1] (four out of five treated lung samples) was 0.1%-1.8%. The entries for the “Fraction of treated samples with T>A transversions at human oncogenic Hras codon 61 hotspot” value in data set [1] (lung samples) and in data set [1] (splenic samples) were “⅘” and “⅕”, respectively.

Consider `CCN(N=O)C(N)=O` [ENU, N-ethyl-N-nitrosourea], for which, in data set [2] (BigBlue mice, liver and bone marrow), the “MF in 4 endogenous genes (Polr1c, rhodopsin, haptoglobin, beta-catenin)” value is on record as “increased”. Further, the “Mutation spectrum, distinguishing mutation types” value in data set [2] (aggregated across all genes, all tissues, unsupervised cluster analysis) was “preponderance of T→C, T→A, and C→T mutations”. For the same compound, the “Mutation load relative to controls” value in data set [2] (bone marrow and liver, cII transgene, BigBlue mice, study day 31) is on record as “significantly increased relative to controls”. Further, the “Trinucleotide context hotspots (most vulnerable contexts)” value in data set [2] (trinucleotide spectra, BigBlue mice) is “GTS and GTG and GTC”.

(Values after patent US20210355532A1, “METHODS AND REAGENTS FOR DETECTING AND ASSESSING GENOTOXICITY” (TwinStrand Biosciences, Inc., priority 2018, published 2021).)
